Values quoted from earlier work in US9381163B2, “Floating capsules encapsulating particles loaded with one or more drugs” (NANYANG TECHNOLOGICAL UNIVERSITY, priority 2012, dated 2016).

metoprolol tartrate salt
log P: 1.6
